The assay deals with siRNA. The assay can be described thus: Association of ferritin with siRNA, gel. Format: binding. The method, then:
1 ml reaction containing 2 mg Ft and 4 ug siRNA in DPBS, pH lowered to values as indicated (2.5, 3.2, 4.4, 5.6 and 6.8, respectively). Samples were incubated 15 min in RT, then NaOH was added to adjust pH to neutral (pH 7). Non-associated free siRNA was removed by 4 centrifugation steps on Amicons with 100 kDa cut-off.

Take “Q11E mutant: Examples 3-8 ferritin variant based on Q11E with added K54E, K72E, K87Q, K144E, C91S, C103S and C131S”: the “association with siRNA” value was “not” (incubated in pH 2.4 and 3.2); “associated with siRNA” (incubated in pH range 4.4 to 6.8, 2 mg Ft and 4 ug siRNA).

The values are drawn from patent publication US20240158472A1, “FERRITIN VARIANTS WITH INCREASED STABILITY AND COMPLEXATION ABILITY” (Cellis AG, priority 2021, published 2024).
